Experimental data reported in patent US20230172894A1, “COMBINATION TREATMENT FOR FUMARATE-RELATED DISEASES” (IMCYSE SA, priority 2020, published 2023).
Structures can show the parent of a compound that is named as a salt. Where two headings read alike, the source gives them in different places.

How the values were obtained:
[1] = test system: experimental auto-immune encephalomyelitis (EAE) development in mice; settings: Example 4; for mice died in group: 16 mice per group; for disease onset: peptide 30 μg/Alum s.c. days 4, 9, 14, 19, BG-12 100 mg/kg p.o. BID days 0 to 27; for disease onset / AUC (area under the curve) of EAE scores / MMS (mean maximal score) / end score (clinical EAE score 0-5): vs negative control, combinations also vs peptides only or BG-12 only
Excerpt: (§1) Example 4: Effect of the therapeutic administration of an immunogenic peptide comprising a human MOG201-212 MHCII T cell epitope linked to a KHCPYC oxidoreductase motif in combination with dimethyl fumarate (BG-12, […]™) on experimental auto-immune encephalomyelitis (EAE) development in mice.
The study used a total of 96 female C57BL/6 mice (Taconic Biosciences, 9 weeks old on Day 0). Mice were acclimated for 7 days prior to the first injection. Mice were assigned to groups in a balanced manner to achieve similar average weight across the groups at the start of the study.
(§2) Treatment 1 was administered once on each of the days indicated in Table 5, s.c., at a volume of 0.05 mL/site, each mouse receiving injection at two sites, for a total of 0.1 mL/mouse/dosing day. IMCY-0189 or P4 peptide total dose was 30 μg per administration.
(§3) BG-12 was dosed at 100 mg/kg.
(§4) All dosing were done at the same time (+/−1 hour) each dosing day. For the BID groups there were no less than 10 and no more than 14 hours between doses.
Lyophilized immunogenic peptide P4 with the sequence […] (SEQ ID NO: 176), comprising an oxidoreductase motif KHCPYC (SEQ ID NO: 77), a linker VRY, a human Myelin Oligodendrocyte Glycoprotein (MOG201-212) MHCII T cell epitope […] (SEQ ID NO: 165) and a flanking sequence TLFKK (SEQ ID NO: 267) (Smart Bioscience) was solubilized immediately before use. Lyophilized P4 was thawed at room temperature for 10 minutes, resuspended in Na Acetate buffer 50 mM NaCl 0.9% pH 5.4 and incubated at room temperature for 10 minutes. Reconstituted peptide was then mixed with Imject™ Alum Adjuvant before injection.
(§5) Treatment 2 was prepared as described in example 2.
EAE induction, scoring and statistical analysis were performed as described in example 2.
(§6) EAE development was evaluated by comparing clinical EAE readouts for all groups to the negative control (Saline/Vehicle) group.

[2] = test system: experimental auto-immune encephalomyelitis (EAE) development in mice; settings: Example 3; for mice died in group: 16 mice per group
Excerpt: as §1, with “3:” for “4:”, “MOG35-55” for “human MOG201-212”, “KCRC (SEQ ID NO: 65) or KCRPYC (SEQ ID NO: 84)” for “KHCPYC”
The study used a total of 128 female C57BL/6 mice (Taconic Biosciences, 9 weeks old on Day 0). Mice were acclimated for 7 days prior to the first injection. Mice were assigned to groups in a balanced manner to achieve similar average weight across the groups at the start of the study.
as §2, with “4,” for “5,”, “IMCY-0189 (CXXC oxidoreductase motif, IMCY-0453 (CXC oxidoreductase motif)” for “IMCY-0189”, “IMCY-0455 (CXXXC oxidoreductase motif)” for “P4”
as §3, §4
(§7) (SEQ ID NO: 266), comprising an oxidoreductase motif KCRC (SEQ ID NO: 65), a linker GW, a murine Myelin Oligodendrocyte Glycoprotein (MOG35-55) MHCII T cell epitope […] (SEQ ID NO: 169) and a flanking sequence HLYR (SEQ ID NO: 186) (Smart Bioscience) was solubilized immediately before use. Lyophilized IMCY-0453 was thawed at room temperature for 10 minutes, resuspended in Na Acetate buffer 50 mM NaCl 0.9% pH 5.4 and incubated at room temperature for 10 minutes. Reconstituted peptide was then mixed with Imject™ Alum Adjuvant before injection.
as §7, with “268),” for “266),”, “KCRPYC” for “KCRC”, “84),” for “65),”, “IMCY-0455” for “IMCY-0453”
as §5
EAE induction, scoring and statistical analysis were performed as described in example
as §6

[3] = test system: experimental auto-immune encephalomyelitis (EAE) development in mice; test: Example 3: serum neurofilament light (NF-L) levels in EAE mice; type: in vivo, female C57BL/6 mice; settings: Day 28 serum, vs negative control
Protocol: On Day 28, blood was collected from all mice into gel clot activator tubes and allowed to clot at room temperature for ˜30 minutes. Blood is then centrifuged at ˜10000 g for 5 minutes. Serum was transferred into Eppendorf tubes and stored at −80° C. until shipment to Quanterix™. Serum Neurofilament light (NF-L) protein levels were quantified using Simoa® NF-light Advantage kit as described in example 1.

[4] = test system: experimental auto-immune encephalomyelitis (EAE) development in mice; test: Example 1: spinal cord histology (H&E inflammatory foci, anti-MBP demyelination score) in EAE mice; type: in vivo, female C57BL/6 mice; settings: vs negative control, combination also vs each single treatment
Protocol: At the end of the study, all mice were euthanized, and spines were collected and placed in 10% buffered formalin for histological analysis.
For each spine, one H&E stained slide and one anti-MBP stained slide were prepared and analyzed. Each slide contained a section with samples from lumbar, thoracic and cervical of spinal cord (3 samples). All analysis was performed by a pathologist blinded to the experimental groups and all clinical readouts.
Inflammatory foci of approximately 20 cells were counted in each H&E stained section. When inflammatory infiltrates consisted of more than 20 cells, an estimate was made of how many foci of 20 cells were present.
Demyelination was scored in each anti-MBP (using immunohistochemistry) stained section. In anti-MBP sections, demyelination is observed as conspicuous unstained areas in white matter tracts and is associated with presence of large vacuoles. The demyelination score represents an estimate of demyelinated area for each section as follows: […]

Molecule	mice died in group [1]	disease onset [1]	AUC (area under the curve) of EAE scores [1]	MMS (mean maximal score) [1]	end score (clinical EAE score 0-5) [1]	mice died in group [2]	serum NF-L levels [3]	level of demyelination (anti-MBP stained sections, score 0-5) [4]	level of inflammation (inflammatory foci in H&E stained spinal cord sections) [4]	disease onset ([2]; peptide 30 μg/Alum s.c. days 4, 9, 14, 19, BG-12 100 mg/kg p.o. BID days 0 to 27, vs negative control)	AUC (area under the curve) of EAE scores ([2]; vs negative control)	MMS (mean maximal score) ([2]; vs negative control)	end score (clinical EAE score 0-5) ([2]; vs negative control)
HCPYCGWYRSPFSRVVHLYR [IMCY-0189]	No mice died	postponed disease onset	statistically significant reduced	statistically significant reduced	reduced end score	No mice died	statistically significant reduced NF-L levels	reduced level of both inflammation and demyelination, although not statistically significant	reduced level of both inflammation and demyelination, although not statistically significant				
COC(=O)/C=C/C(=O)OC [BG-12, dimethyl fumarate, reference compound]	No mice died	postponed disease onset	statistically significant reduced	statistically significant reduced	reduced end score	No mice died	statistically significant reduced NF-L levels		reduced level of inflammation, although not statistically significant	postponed disease onset	statistically significant reduced	statistically significant reduced	reduced end score
